Here are results for 26 molecules from patent US10696677B2 (Research Triangle Institute, priority 2016, dated 2020).

Like-named read-outs stand apart in the source and are kept apart here.

Broadly, the melting point is the temperature, or range, at which the solid turns liquid. By Ki is commonly meant a dissociation constant, usually derived from enzyme kinetics or from competition with a known ligand.

Series [1] deals with T1, hCB1 (Homo sapiens, UniProt P21554). Description: functional fluorescent CB1 activated Gαq16-coupled intracellular calcium mobilization assay in CHO-K1 cells. The class given is cell-based. Also on record: expressed in transfected cells; host or cells: CHO-K1 (membranes). As to conditions: average of 3-6 measurements, read-out: Apparent antagonist dissociation constant (Ke) at hCB1. For orientation: Calcium assays in cells follow changes in intracellular calcium, usually with a dye or a luminescent sensor.
T1 sequence (P21554 whole entry): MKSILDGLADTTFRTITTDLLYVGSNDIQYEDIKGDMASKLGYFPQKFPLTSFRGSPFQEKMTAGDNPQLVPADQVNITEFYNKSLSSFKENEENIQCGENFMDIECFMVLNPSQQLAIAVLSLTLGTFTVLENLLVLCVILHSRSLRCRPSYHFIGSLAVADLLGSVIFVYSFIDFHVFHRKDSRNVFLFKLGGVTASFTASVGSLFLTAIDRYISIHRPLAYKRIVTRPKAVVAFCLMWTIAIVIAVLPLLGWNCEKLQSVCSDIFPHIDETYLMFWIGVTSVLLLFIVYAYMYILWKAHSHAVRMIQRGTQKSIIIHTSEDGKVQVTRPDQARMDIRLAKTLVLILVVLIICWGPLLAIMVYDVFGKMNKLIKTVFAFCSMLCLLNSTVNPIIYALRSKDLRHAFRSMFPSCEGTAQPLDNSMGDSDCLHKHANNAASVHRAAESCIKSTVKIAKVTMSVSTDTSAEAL

The test system of a further series is MDCK. Put plainly: MDCK BBB Assay. Particulars: for % Permeable: MDCK BBB assay; for MDCK BBB Assay (Basolateral/Apical Peak Area Ratio) Mean: MDCK cells. The class given is in vitro ADME.
Series [2] addresses T1, hCB1. Description: radioligand displacement binding at CB1 (membranes of CHO-K1 cells over-expressing receptor). As to conditions: for CB2 Ki/CB1 Ki selectivity ratio: CB1 versus CB2. A general note: Displacement assays read how much labelled ligand stays bound in the presence of the test substance.
Procedure: (§1) All compounds were characterized by H^1 NMR and evaluated using a calcium mobilization assay. […] Further characterization of select compounds was performed using radioligand displacement of [3H]1 and equilibrium dissociation constant (Ki) values were determined.
The target of another series is hCB2 (Homo sapiens, UniProt P34972). Description: radioligand displacement binding at CB2 ([3H]CP55940, membranes of CHO-K1 cells over-expressing receptor).
Sequence of hCB2 (P34972 whole entry): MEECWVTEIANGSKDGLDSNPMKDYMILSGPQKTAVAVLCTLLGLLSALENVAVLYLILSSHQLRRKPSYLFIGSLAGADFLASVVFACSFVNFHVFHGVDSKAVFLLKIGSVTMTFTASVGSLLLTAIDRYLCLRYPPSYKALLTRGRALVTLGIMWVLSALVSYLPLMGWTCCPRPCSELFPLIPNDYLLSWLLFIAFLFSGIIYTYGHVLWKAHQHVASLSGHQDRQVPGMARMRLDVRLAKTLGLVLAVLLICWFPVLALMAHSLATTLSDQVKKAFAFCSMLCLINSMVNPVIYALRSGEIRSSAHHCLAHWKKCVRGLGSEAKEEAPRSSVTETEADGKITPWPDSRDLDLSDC
The mark [3] stands for this setting: read-out: Binding affinity (Ki) at hCB1, radioligand displacement, CHO-K1 membranes, average of 3-6 measurements.
Where [4] appears, read: read-out: Binding affinity (Ki) at hCB2, displacement of [3H]CP55940, CHO-K1 membranes, average of 3-6 measurements.

Procedure for hCB2: as §1

The molecule `O=S(=O)(NC1CCN(c2ncnc3c2nc(-c2ccccc2Cl)n3-c2ccc(Cl)cc2)CC1)c1ccccc1F` [Compound 1, N-{1-[8-(2-Chlorophenyl)-9-(4-chlorophenyl)-9H-purin-6-yl]piperidin-4-yl}-2-fluorobenzene-1-sulfonamide] registered a melting point of 185 to 187 °C. Besides, on hCB1 [1], the Kb turned out to be 0.1 nM.
On to `O=S(=O)(NC1CCN(c2ncnc3c2nc(-c2ccccc2Cl)n3-c2ccc(Cl)cc2)CC1)c1ccc(F)cc1` [Compound 4, N-{1-[8-(2-Chlorophenyl)-9-(4-chlorophenyl)-9H-purin-6-yl]piperidin-4-yl}-4-fluorobenzene-1-sulfonamide], for which the melting point fell in the range of 196 to 197 °C. In addition, in the series on MDCK, the “% Permeable” value stood at 0% and the “MDCK BBB Assay (Basolateral/Apical Peak Area Ratio) Mean” value is 0.0006. The Kb at hCB1 [1] worked out at 1.1 nM.
In the case of `Cn1cc(-n2c(-c3ccccc3Cl)nc3c(N4CCC(NS(=O)(=O)c5ccc(F)c(F)c5)CC4)ncnc32)cn1` [Compound 12, N-{1-[8-(2-Chlorophenyl)-9-(1-methyl-1H-pyrazol-4-yl)-9H-purin-6-yl]piperidin-4-yl}-3,4-difluorobenzene-1-sulfonamide], the melting point lay within 162 to 164 °C. The Kb at hCB1 [1] was found to be 140 nM.
For the molecule `N=C(Nc1ccc(F)cc1)NC1CCN(c2ncnc3c2nc(-c2ccccc2Cl)n3-c2ccc(Cl)cc2)CC1` [Compound 27, 1-{1-[8-(2-chlorophenyl)-9-(4-chlorophenyl)-9H-purin-6-yl]piperidin-4-yl}-3-(4-fluorophenyl)guanidine], the Kb at hCB1 [1] was 600 nM.
Turning to `O/N=C(/c1ccc(F)cc1)C1CCN(c2ncnc3c2nc(-c2ccccc2Cl)n3-c2ccc(Cl)cc2)CC1` [Compound 29, (E)-{1-[8-(2-chlorophenyl)-9-(4-chlorophenyl)-9H-purin-6-yl]piperidin-4-yl}(4-fluorophenyl)methanone oxime], the affinity at hCB1 [2] corresponds to a Ki of 4 nM. Besides, the Kb on hCB1 [1] amounted to 21 nM.
On to `Clc1ccc(-n2c(-c3ccccc3Cl)nc3c(N4CCC(c5nc6ccccc6[nH]5)CC4)ncnc32)cc1` [Compound 30, 6-[4-(1H-benzimidazol-2-yl)piperidin-1-yl]-8-(2-chlorophenyl)-9-(4-chlorophenyl)-9H-purine], for which the inhibition constant (Ki) on hCB1 [2] (setting [3]) was determined as 47 nM. Further, the Kb on hCB1 [1] came out at 12 nM.
Consider `Clc1ccc(-n2c(-c3ccccc3Cl)nc3c(N4CCC(Nc5ccccc5)CC4)ncnc32)cc1` [Compound 31, 1-[8-(2-chlorophenyl)-9-(4-chlorophenyl)-9H-purin-6-yl]-N-phenylpiperidin-4-amine], for which, in the series on MDCK, the “% Permeable” value amounted to 0% and the “MDCK BBB Assay (Basolateral/Apical Peak Area Ratio) Mean” value is listed as 0. On hCB1 [1], the Kb was 1.4 nM.
For the molecule `Clc1ccc(-n2c(-c3ccccc3Cl)nc3c(N4CCC(Nc5ccncc5)CC4)ncnc32)cc1` [Compound 36, N-{1-[8-(2-chlorophenyl)-9-(4-chlorophenyl)-9H-purin-6-yl]piperidin-4-yl}pyridin-4-amine], the Kb on hCB1 [1] turned out to be 100 nM.
On the same count and under the same terms, the result for `Clc1ccc(-n2c(-c3ccccc3Cl)nc3c(N4CCC(NCc5ccccc5)CC4)ncnc32)cc1` [Compound 37, N-benzyl-1-[8-(2-chlorophenyl)-9-(4-chlorophenyl)-9H-purin-6-yl]piperidin-4-amine] reads 59 nM; that for `Clc1ccc(-n2c(-c3ccccc3Cl)nc3c(N4CCC(NCc5ccncc5)CC4)ncnc32)cc1` [Compound 38, 1-[8-(2-chlorophenyl)-9-(4-chlorophenyl)-9H-purin-6-yl]-N-(pyridin-4-ylmethyl)piperidin-4-amine], 360 nM.
`CN(Cc1ccccc1)C1CCN(c2ncnc3c2nc(-c2ccccc2Cl)n3-c2ccc(Cl)cc2)CC1` [Compound 39, N-benzyl-1-[8-(2-chlorophenyl)-9-(4-chlorophenyl)-9H-purin-6-yl]-N-methylpiperidin-4-amine]: the “CB2 Ki/CB1 Ki selectivity ratio” value at hCB1 [2] is listed as 98. Moreover, the Ki at hCB1 [2] (setting [3]) is 42 nM; at hCB2, 4100 nM. For the same molecule, the Kb on hCB1 [1] is 106 nM.
Consider `Fc1ccc(CNC2CCN(c3ncnc4c3nc(-c3ccccc3Cl)n4-c3ccc(Cl)cc3)CC2)cc1` [Compound 40, 1-[8-(2-chlorophenyl)-9-(4-chlorophenyl)-9H-purin-6-yl]-N-(4-fluorobenzyl)piperidin-4-amine], for which the Kb on hCB1 [1] was 82 nM.
Same read-out and setting: the result for `CN(Cc1ccc(F)cc1)C1CCN(c2ncnc3c2nc(-c2ccccc2Cl)n3-c2ccc(Cl)cc2)CC1` [Compound 41, 1-[8-(2-chlorophenyl)-9-(4-chlorophenyl)-9H-purin-6-yl]-N-(4-fluorobenzyl)-N-methylpiperidin-4-amine] reads 185 nM.
Molecule `O=C(Nc1ccc(F)c(F)c1)N1CCN(c2ncnc3c2nc(-c2ccccc2Cl)n3-c2ccc(Cl)cc2)CC1` [Compound 42, 4-[8-(2-Chlorophenyl)-9-(4-chlorophenyl)-9H-purin-6-yl]-N-(3,4-difluorophenyl)piperazine-1-carboxamide] returned a melting point of 205 to 207 °C. In addition, the Ki at hCB2 (setting [4]) is 4200 nM. Also, the “% Permeable” value with MDCK worked out at 0%.
For `O=C(Nc1ccccc1)N1CCN(c2ncnc3c2nc(-c2ccccc2Cl)n3-c2ccc(C(F)(F)F)nc2)CC1` [Compound 45], the results for the Ki on hCB1 [2] and at hCB2 were 39 nM and 790 nM, respectively. Further, the “CB2 Ki/CB1 Ki selectivity ratio” value at hCB1 [2] amounted to 30. In addition, the Kb at hCB1 [1] was 8 nM.
`FC(F)(F)c1ccc(-n2c(-c3ccccc3Cl)nc3c(N4CCN(Cc5ccccc5Cl)CC4)ncnc32)cn1` [Compound 47, 8-(2-Chlorophenyl)-6-{4-[(2-chlorophenyl)methyl]piperazin-1-yl}-9-[6-(trifluoromethyl)pyridin-3-yl]-9H-purine] registered a melting point of 189 to 190 °C. For the same molecule, the Kb at hCB1 [1] came to 140 nM.
For `NC(=O)c1ccc(-n2c(-c3ccccc3Cl)nc3c(N4CCN(Cc5ccccc5Cl)CC4)ncnc32)cc1` [Compound 48, 4-[8-(2-chlorophenyl)-6-{4-[(2-chlorophenyl)methyl]piperazin-1-yl}-9H-purin-9-yl]benzamide], the melting point fell in the range of 120 to 122 °C. On hCB1 [1], the Kb was found to be 440 nM.
For `Cc1cc(-n2c(-c3ccccc3Cl)nc3c(N4CCN(Cc5ccccc5Cl)CC4)ncnc32)no1` [Compound 49, 8-(2-chlorophenyl)-6-{4-[(2-chlorophenyl)methyl]piperazin-1-yl}-9-(5-methyl-1,2-oxazol-3-yl)-9H-purine], the melting point lay within 79 to 81 °C. The Kb at hCB1 [1] was 320 nM.
For `Cn1ccc(-n2c(-c3ccccc3Cl)nc3c(N4CCN(Cc5ccccc5Cl)CC4)ncnc32)n1` [Compound 51, 8-(2-Chlorophenyl)-6-{4-[(2-chlorophenyl)methyl]piperazin-1-yl}-9-(1-methyl-1H-pyrazol-3-yl)-9H-purine] the same measures were 150 to 152 °C and 380 nM.
Consider `Clc1ccc(-n2c(-c3sccc3Cl)nc3c(N4CCN(Cc5ccccc5Cl)CC4)ncnc32)cc1` [Compound 52, 6-[4-(2-chlorobenzyl)piperazin-1-yl]-9-(4-chlorophenyl)-8-(3-chlorothiophen-2-yl)-9H-purine], for which, at hCB1 [1], the Kb came to 220 nM.
Same read-out and setting: as for `Cc1noc(C)c1-c1nc2c(N3CCN(Cc4ccccc4Cl)CC3)ncnc2n1-c1ccc(Cl)cc1` [Compound 53, 6-[4-(2-chlorobenzyl)piperazin-1-yl]-9-(4-chlorophenyl)-8-(3,5-dimethylisoxazol-4-yl)-9H-purine], the figure is 110 nM.
`O=C(NC1CCCC1)N1CCN(c2ncnc3c2nc(-c2ccccc2Cl)n3-c2ccc(Cl)cc2)CC1` [Compound 117, 4-[8-(2-Chlorophenyl)-9-(4-chlorophenyl)-9H-purin-6-yl]-N-cyclopentylpiperazine-1-carboxamide] had a melting point of 248 to 250 °C. The Ki on hCB1 [2] (setting [3]) was determined as 5 nM. Further, on hCB2 (setting [4]), the Ki amounted to 740 nM. Besides, the “% Permeable” value with MDCK was determined as 3%.
`O=C(NCC1CCCCC1)N1CCN(c2ncnc3c2nc(-c2ccccc2Cl)n3-c2ccc(Cl)cc2)CC1` [Compound 120, 4-[8-(2-chlorophenyl)-9-(4-chlorophenyl)-9H-purin-6-yl]-N-(cyclohexylmethyl)piperazine-1-carboxamide]: the melting point was 105 to 107 °C. The Ki on hCB1 [2] (setting [3]) stood at 43 nM. The Ki on hCB2 (setting [4]) is 740 nM.
For `O=C(Nc1ccccc1)N1CCN(c2ncnc3c2nc(-c2ccccc2Cl)n3-c2ccc(Cl)cc2)CC1` [Compound 121, 4-[8-(2-chlorophenyl)-9-(4-chlorophenyl)-9H-purin-6-yl]-N-phenylpiperazine-1-carboxamide] the same measures were 121 to 123 °C, 6 nM and 2400 nM.
Molecule `O=C(Nc1ccccn1)N1CCN(c2ncnc3c2nc(-c2ccccc2Cl)n3-c2ccc(Cl)cc2)CC1` [Compound 122, 4-[8-(2-Chlorophenyl)-9-(4-chlorophenyl)-9H-purin-6-yl]-N-(pyridin-2-yl)piperazine-1-carboxamide] yielded a melting point of 120 to 122 °C. In addition, the Ki at hCB1 [2] (setting [3]) was 6 nM. On hCB2 (setting [4]), the Ki stood at 7100 nM. Moreover, the “% Permeable” value in the series with MDCK was found to be 1%.
With `Clc1ccc(-n2c(-c3ccccc3Cl)nc3c(N4CCN(c5nc6ccccc6[nH]5)CC4)ncnc32)cc1` [Compound 123, 6-[4-(1H-benzimidazol-2-yl)piperazin-1-yl]-8-(2-chlorophenyl)-9-(4-chlorophenyl)-9H-purine], the Kb on hCB1 [1] was 53 nM.
